The text below walks through data of patent US11173151B2, “Substituted triazole derivatives and uses thereof” (BAYER AKTIENGESELLSCHAFT, priority 2017, dated 2021).

Assay [1] concerns the target T1, human V1a receptor (Homo sapiens, UniProt P37288).
T1 construct: expressed in transfected cells; host or cells: CHO K1 (ATCC), also stably transfected with a modified aequorin
Kind of assay: Cellular in vitro assay for determining vasopressin receptor activity, V1a receptor cell line (CHO, aequorin luminescence). The class given is cell-based. The conditions noted are these: for IC50: CHO cell line transfected with human V1a receptor, [Arg]-vasopressin at EC50 concentration, read-out: IC50 hV1a; for ratio IC50 hV2/hV1a: selectivity ratio IC50 hV2 / IC50 hV1a. A digest of the protocol: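 Cells were plated the day before in medium containing 5 μg/ml coelenterazine and kept at 37° C. Compounds at various concentrations were then added for 10 minutes. Next, [Arg]-vasopressin at EC50 was applied and light output recorded at once, yielding IC50.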

Assay [2] deals with T2, human V2 receptor (Homo sapiens, UniProt P30518).
T2 construct: expressed in transfected cells; host or cells: CHO K1 (ATCC) expressing firefly luciferase under a CRE-responsive promoter
Nature of the assay: Cellular in vitro assay for determining vasopressin receptor activity, V2 receptor cell line (CHO, CRE-luciferase). The class given is cell-based. The conditions noted are these: CHO cell line transfected with human V2 receptor; [Arg8]-vasopressin at EC50 concentration, 3 hours; read-out: IC50 hV2.

SMILES strings stand for the structures.

T2 sequence (P30518 whole entry): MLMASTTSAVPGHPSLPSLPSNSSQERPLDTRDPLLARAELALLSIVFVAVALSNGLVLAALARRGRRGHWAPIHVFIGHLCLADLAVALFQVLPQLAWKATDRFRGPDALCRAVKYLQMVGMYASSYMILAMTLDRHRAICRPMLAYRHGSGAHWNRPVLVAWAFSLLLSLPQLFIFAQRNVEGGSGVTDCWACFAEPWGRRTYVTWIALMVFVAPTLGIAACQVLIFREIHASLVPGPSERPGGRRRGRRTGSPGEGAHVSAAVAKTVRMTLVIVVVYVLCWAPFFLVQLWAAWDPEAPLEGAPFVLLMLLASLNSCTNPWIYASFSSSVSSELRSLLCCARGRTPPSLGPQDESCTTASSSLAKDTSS
T1 sequence (P37288 whole entry): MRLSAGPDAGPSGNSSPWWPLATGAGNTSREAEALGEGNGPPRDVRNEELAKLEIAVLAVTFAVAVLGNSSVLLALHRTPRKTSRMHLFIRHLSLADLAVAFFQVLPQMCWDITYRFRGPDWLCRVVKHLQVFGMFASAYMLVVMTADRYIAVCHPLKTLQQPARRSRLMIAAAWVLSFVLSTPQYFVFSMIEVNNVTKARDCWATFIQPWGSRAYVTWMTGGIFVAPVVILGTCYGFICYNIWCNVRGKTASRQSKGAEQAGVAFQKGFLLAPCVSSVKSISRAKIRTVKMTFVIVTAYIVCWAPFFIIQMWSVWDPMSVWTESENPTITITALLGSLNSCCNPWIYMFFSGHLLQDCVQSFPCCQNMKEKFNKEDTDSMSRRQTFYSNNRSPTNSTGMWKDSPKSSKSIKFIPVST

Turning to `Cc1c(F)cccc1NC(=O)c1ccccc1-n1cnc(Cn2nc(-c3ccc(Cl)cc3)n(C[C@H](O)C(F)(F)F)c2=O)n1` [Example 306, 2-[3-({3-(4-Chlorophenyl)-5-oxo-4-[(2S)-3,3,3-trifluoro-2-hydroxypropyl]-4,5-dihydro-1H-1,2,4-triazol-1-yl}methyl)-1H-1,2,4-triazol-1-yl]-N-(3-fluoro-2-methylphenyl)benzamide], in assay [1], the IC50 was 1.6 nM and the “ratio IC50 hV2/hV1a” value was found to be 77.2. Moreover, the half-maximal inhibitory concentration (IC50) in assay [2] is 124 nM.
For `Cc1ccc(F)c(NC(=O)c2ccccc2-n2cnc(Cn3nc(-c4ccc(Cl)cc4)n(C[C@H](O)C(F)(F)F)c3=O)n2)c1` [Example 307, 2-[3-({3-(4-Chlorophenyl)-5-oxo-4-[(2S)-3,3,3-trifluoro-2-hydroxypropyl]-4,5-dihydro-1H-1,2,4-triazol-1-yl}methyl)-1H-1,2,4-triazol-1-yl]-N-(2-fluoro-5-methylphenyl)benzamide], the results for the IC50 in assay [1] and in assay [2] were 1.65 nM and 175 nM, respectively. For the same molecule, the “ratio IC50 hV2/hV1a” value in assay [1] is given as 106.1.
As for `O=C(NN1CCOCC1)c1ccccc1-n1cnc(Cn2nc(-c3ccc(Cl)cc3)n(C[C@H](O)C(F)(F)F)c2=O)n1` [Example 308, 2-[3-({3-(4-Chlorophenyl)-5-oxo-4-[(2S)-3,3,3-trifluoro-2-hydroxypropyl]-4,5-dihydro-1H-1,2,4-triazol-1-yl}methyl)-1H-1,2,4-triazol-1-yl]-N-(morpholin-4-yl)benzamide], the half-maximal inhibitory concentration (IC50) was determined as 17.5 nM in assay [1] and 3300 nM in assay [2]. For the same molecule, the “ratio IC50 hV2/hV1a” value in assay [1] was 188.6.
For the molecule `Cc1ccc(NC(=O)c2ccccc2-n2cnc(Cn3nc(-c4ccc(Cl)cc4)n(C[C@H](O)C(F)(F)F)c3=O)n2)c(F)c1` [Example 309, 2-[3-({3-(4-Chlorophenyl)-5-oxo-4-[(2S)-3,3,3-trifluoro-2-hydroxypropyl]-4,5-dihydro-1H-1,2,4-triazol-1-yl}methyl)-1H-1,2,4-triazol-1-yl]-N-(2-fluoro-4-methylphenyl)benzamide], in assay [1], the IC50 was 1.9 nM and the “ratio IC50 hV2/hV1a” value was 61.3. Moreover, the 50% inhibitory concentration (IC50) in assay [2] came out at 116 nM.
Turning to `O=C(Nc1ccc(F)cc1)c1ccccc1-n1cnc(Cn2nc(-c3ccc(Cl)cc3)n(C[C@H](O)C(F)(F)F)c2=O)n1` [Example 310, 2-[3-({3-(4-Chlorophenyl)-5-oxo-4-[(2S)-3,3,3-trifluoro-2-hydroxypropyl]-4,5-dihydro-1H-1,2,4-triazol-1-yl}methyl)-1H-1,2,4-triazol-1-yl]-N-(4-fluorophenyl)benzamide], in assay [1], the IC50 turned out to be 2.6 nM and the “ratio IC50 hV2/hV1a” value was 82.7. Also, in assay [2], the IC50 was found to be 215 nM.
With `O=C(c1ccccc1-n1cnc(Cn2nc(-c3ccc(Cl)cc3)n(C[C@H](O)C(F)(F)F)c2=O)n1)N1CCSCC1` [Example 311, 5-(4-Chlorophenyl)-2-({1-[2-(thiomorpholin-4-ylcarbonyl)phenyl]-1H-1,2,4-triazol-3-yl}methyl)-4-[(2S)-3,3,3-trifluoro-2-hydroxypropyl]-2,4-dihydro-3H-1,2,4-triazol-3-one], in assay [1], the half-maximal inhibitory concentration (IC50) was found to be 1.85 nM and the “ratio IC50 hV2/hV1a” value was 675.7. The 50% inhibitory concentration (IC50) in assay [2] is 1250 nM.
Take `Nc1cccc(NC(=O)c2ccccc2-n2cnc(Cn3nc(-c4ccc(Cl)cc4)n(C[C@H](O)C(F)(F)F)c3=O)n2)n1` [Example 312, N-(6-Aminopyridin-2-yl)-2-[3-({3-(4-chlorophenyl)-5-oxo-4-[(2S)-3,3,3-trifluoro-2-hydroxypropyl]-4,5-dihydro-1H-1,2,4-triazol-1-yl}methyl)-1H-1,2,4-triazol-1-yl]benzamide]: the results for the half-maximal inhibitory concentration (IC50) in assay [1] and in assay [2] were 6.85 nM and 135 nM, respectively. Besides, the “ratio IC50 hV2/hV1a” value in assay [1] is listed as 19.7.
Consider `Cc1ccncc1NC(=O)c1ccccc1-n1cnc(Cn2nc(-c3ccc(Cl)cc3)n(C[C@H](O)C(F)(F)F)c2=O)n1` [Example 313, 2-[3-({3-(4-Chlorophenyl)-5-oxo-4-[(2S)-3,3,3-trifluoro-2-hydroxypropyl]-4,5-dihydro-1H-1,2,4-triazol-1-yl}methyl)-1H-1,2,4-triazol-1-yl]-N-(4-methylpyridin-3-yl)benzamide], for which, in assay [1], the concentration for half-maximal inhibition (IC50) was 4.15 nM and the “ratio IC50 hV2/hV1a” value is 220.5. Besides, in assay [2], the IC50 amounted to 915 nM.
Turning to `CCN(CC)C(=O)c1ccccc1-n1cnc(Cn2nc(-c3ccc(Cl)cc3)n(C[C@H](O)C(F)(F)F)c2=O)n1` [Example 314, 2-[3-({3-(4-Chlorophenyl)-5-oxo-4-[(2S)-3,3,3-trifluoro-2-hydroxypropyl]-4,5-dihydro-1H-1,2,4-triazol-1-yl}methyl)-1H-1,2,4-triazol-1-yl]-N,N-diethylbenzamide], in assay [1], the half-maximal inhibitory concentration (IC50) came to 2.15 nM and the “ratio IC50 hV2/hV1a” value is listed as 237.2. The IC50 in assay [2] was found to be 510 nM.
With `O=C(NCc1ccco1)c1ccccc1-n1cnc(Cn2nc(-c3ccc(Cl)cc3)n(C[C@H](O)C(F)(F)F)c2=O)n1` [Example 315, 2-[3-({3-(4-Chlorophenyl)-5-oxo-4-[(2S)-3,3,3-trifluoro-2-hydroxypropyl]-4,5-dihydro-1H-1,2,4-triazol-1-yl}methyl)-1H-1,2,4-triazol-1-yl]-N-(furan-2-ylmethyl)benzamide], the figures for the IC50 in assay [1] and in assay [2] were 4.15 nM and 155 nM, respectively. Further, the “ratio IC50 hV2/hV1a” value in assay [1] is 37.3.
Consider `O=C(NC1CCC1)c1ccccc1-n1cnc(Cn2nc(-c3ccc(Cl)cc3)n(C[C@H](O)C(F)(F)F)c2=O)n1` [Example 316, 2-[3-({3-(4-Chlorophenyl)-5-oxo-4-[(2S)-3,3,3-trifluoro-2-hydroxypropyl]-4,5-dihydro-1H-1,2,4-triazol-1-yl}methyl)-1H-1,2,4-triazol-1-yl]-N-cyclobutylbenzamide], for which, in assay [1], the IC50 was 1.75 nM and the “ratio IC50 hV2/hV1a” value is on record as 145.7. Besides, the half-inhibitory concentration (IC50) in assay [2] was determined as 255 nM.
In the case of `O=C(Nc1c(F)cc(F)cc1F)c1ccccc1-n1cnc(Cn2nc(-c3ccc(Cl)cc3)n(C[C@H](O)C(F)(F)F)c2=O)n1` [Example 317, 2-[3-({3-(4-Chlorophenyl)-5-oxo-4-[(2S)-3,3,3-trifluoro-2-hydroxypropyl]-4,5-dihydro-1H-1,2,4-triazol-1-yl}methyl)-1H-1,2,4-triazol-1-yl]-N-(2,4,6-trifluorophenyl)benzamide], in assay [1], the IC50 worked out at 2.3 nM and the “ratio IC50 hV2/hV1a” value is recorded as 123.9. Besides, the half-inhibitory concentration (IC50) in assay [2] came to 285 nM.
For `O=C(NCC1CCCCC1)c1ccccc1-n1cnc(Cn2nc(-c3ccc(Cl)cc3)n(C[C@H](O)C(F)(F)F)c2=O)n1` [Example 318, 2-[3-({3-(4-Chlorophenyl)-5-oxo-4-[(2S)-3,3,3-trifluoro-2-hydroxypropyl]-4,5-dihydro-1H-1,2,4-triazol-1-yl}methyl)-1H-1,2,4-triazol-1-yl]-N-(cyclohexylmethyl)benzamide], in assay [1], the IC50 came to 14.5 nM and the “ratio IC50 hV2/hV1a” value is given as 63.4. The IC50 in assay [2] was 920 nM.
With `CCCNC(=O)c1ccccc1-n1cnc(Cn2nc(-c3ccc(Cl)cc3)n(C[C@H](O)C(F)(F)F)c2=O)n1` [Example 320, 2-[3-({3-(4-Chlorophenyl)-5-oxo-4-[(2S)-3,3,3-trifluoro-2-hydroxypropyl]-4,5-dihydro-1H-1,2,4-triazol-1-yl}methyl)-1H-1,2,4-triazol-1-yl]-N-propylbenzamide], in assay [1], the half-inhibitory concentration (IC50) was 1.35 nM and the “ratio IC50 hV2/hV1a” value came to 75.9. Further, in assay [2], the IC50 was determined as 102 nM.
Regarding `CC1CCC(NC(=O)c2ccccc2-n2cnc(Cn3nc(-c4ccc(Cl)cc4)n(C[C@H](O)C(F)(F)F)c3=O)n2)CC1` (stereo partly drawn) [Example 321, 2-[3-({3-(4-Chlorophenyl)-5-oxo-4-[(2S)-3,3,3-trifluoro-2-hydroxypropyl]-4,5-dihydro-1H-1,2,4-triazol-1-yl}methyl)-1H-1,2,4-triazol-1-yl]-N-(4-methylcyclohexyl)benzamide], in assay [1], the IC50 was found to be 13 nM and the “ratio IC50 hV2/hV1a” value is listed as 43.8. Also, the IC50 in assay [2] worked out at 570 nM.
For the molecule `CC(C)(C)CNC(=O)c1ccccc1-n1cnc(Cn2nc(-c3ccc(Cl)cc3)n(C[C@H](O)C(F)(F)F)c2=O)n1` [Example 322, 2-[3-({3-(4-Chlorophenyl)-5-oxo-4-[(2S)-3,3,3-trifluoro-2-hydroxypropyl]-4,5-dihydro-1H-1,2,4-triazol-1-yl}methyl)-1H-1,2,4-triazol-1-yl]-N-(2,2-dimethylpropyl)benzamide], in assay [1], the IC50 amounted to 2.65 nM and the “ratio IC50 hV2/hV1a” value is reported as 103.8. Besides, in assay [2], the half-inhibitory concentration (IC50) came out at 275 nM.
Taken in the same sequence, the figures for `Cc1ccccc1NC(=O)c1ccccc1-n1cnc(Cn2nc(-c3ccc(Cl)cc3)n(C[C@H](O)C(F)(F)F)c2=O)n1` [Example 323, 2-[3-({3-(4-Chlorophenyl)-5-oxo-4-[(2S)-3,3,3-trifluoro-2-hydroxypropyl]-4,5-dihydro-1H-1,2,4-triazol-1-yl}methyl)-1H-1,2,4-triazol-1-yl]-N-(2-methylphenyl)benzamide] were 2.05 nM, 34.4 and 70.5 nM.
Taken in the same sequence, the figures for `CC(C)N(C(=O)c1ccccc1-n1cnc(Cn2nc(-c3ccc(Cl)cc3)n(C[C@H](O)C(F)(F)F)c2=O)n1)C(C)C` [Example 324, 2-[3-({3-(4-Chlorophenyl)-5-oxo-4-[(2S)-3,3,3-trifluoro-2-hydroxypropyl]-4,5-dihydro-1H-1,2,4-triazol-1-yl}methyl)-1H-1,2,4-triazol-1-yl]-N,N-di(propan-2-yl)benzamide] were 14 nM, 117.9 and 1650 nM.
